Test results taken from patent publication US20260193229A1, “BRISC DEUBIQUITINATING ENZYME INHIBITORS” (THE TRUSTEES OF THE UNIVERSITY OF PENNSYLVANIA, priority 2022, published 2026).

These compounds were tested against T1, BRISC (Homo sapiens, UniProt P46736+Q15018) (assay: BRISC DUB inhibition assay with quenched K63-linked di-ubiquitin substrate (TAMRA fluorescence)). Details: Table 1, Activity Range Table.
T1 construct: made in house; host or cells: insect cells (MultiBac baculovirus)
Format: biochemical
Experimental: High throughput screening. A baculoviral expression system was established to purify milligram quantities of the entire BRISC complex from insect cells. The MultiBac system was used to clone all 4 components of the BRISC complex into one vector which was then packaged into the baculovirus genome using the methods described in Zeqiraj et al., 2015 (Mol. Cell).
The assay buffer included: 50 mM HEPES-NaOH, pH 7.0; 100 mM NaCl; 1 mM DTT; 1 mg/ml BSA; and 0.03% Brij-35. BRISC was assayed at 1 nM (final concentration) with the substrate at 500 nM (final concentration). The final reaction volume was 20 μl in each 384 plate well (Corning, #3573; black, low flange, flat bottom) with a final concentration of compounds of 10 μM.
A 5 ml of enzyme solution with BRISC at 2 nM in assay buffer was made by adding 10 μl of BRISC working stock (1 μM) to 5 ml of assay buffer. A 5 ml of substrate solution was made with […] of K63-diUbiquitin (made in-house) plus […] of IQF K63-diUbiquitin by adding the appropriate volumes of diUbiquitins to 5 ml of assay buffer. 45 μL of BRISC (enzyme solution) was dispensed into columns 1-11 of a 96 well PCR plate (skirted). Buffer was only dispensed in column 12 (no enzyme control). 45 μl of substrate solution was dispensed into columns 1-12 of a 96 well PCR plate (skirted). The plate was spun down at 3000 rpm (bench top centrifuge) at room temp for 2 min to remove any air bubbles. Using a Biomek FX, liquid handler (Bekman), 10 μl of BRISC (enzyme solution) was dispensed into the 4 quadrants of a 384 well plate. 200 nl of compounds was dispensed into each well of the 384 plates using the pin tool (columns A and B usually contain DMSO only, and serve as controls), and the plates were incubated for 10-15 minutes at room temperature. 10 μl of substrate solution was dispensed into the 4 quadrants of the 384 well plate. The plate was then incubated for 30 min at room temperature in the dark and read with settings suitable for detecting TAMRA fluorescence (excitation wavelength of 540 nm and emission wavelength of 580 nm). A PHERAStar plate (BMG labtech) reader was used with a gain value of 570. The Intensity/Background (I/Bg), defined as [(Average of columns 1 and 2; DMSO controls)/(Average of columns 23 and 24; no enzyme controls)], were about 5.
The activities of the compounds disclosed in the present disclosure in inhibiting BRCC36 enzyme activity was measured in accordance with the method disclosed in Example 2.
`CS(=O)(=O)n1cc(NC(=O)c2c(Cl)cccc2Cl)c(C(=O)NC2CCNCC2)n1` [Compound 2, 4-(2,6-dichlorobenzamido)-1-(methylsulfonyl)-N-(piperidin-4-yl)-1H-pyrazole-3-carboxamide] was tested, and the IC50 was 1 to 10 µM.
Compound `O=C(NC1CCNCC1)c1nn(S(=O)(=O)c2cc(Cl)cc(Cl)c2)cc1NC(=O)c1c(Cl)cccc1Cl` [Compound 3] has an IC50 of 1 to 10 µM.
`O=C(NC1CCNCC1)c1nn(S(=O)(=O)c2ccc(Cl)cc2)cc1NC(=O)c1c(Cl)cccc1Cl` [Compound 4] was tested, and the IC50 was 1 to 10 µM.
For `O=C(NC1CCNCC1)c1nn(S(=O)(=O)c2ccccc2)cc1NC(=O)c1c(Cl)cccc1Cl` [Compound 5], the IC50 was 10 to 50 µM.
With `O=C(NC1CCNCC1)c1nn(S(=O)(=O)CCc2ccccc2)cc1NC(=O)c1c(Cl)cccc1Cl` [Compound 6] the IC50 was 1 to 10 µM.
Work on `O=C(Nc1cn(C(=O)c2c(Cl)cccc2Cl)nc1C(=O)N1CCNCC1)c1c(Cl)cccc1Cl` [Compound 7] yielded an IC50 of 1 to 10 µM.
Work on `O=C(N[C@@H]1CCNC1)c1nn(C(=O)c2c(Cl)cccc2Cl)cc1NC(=O)c1c(Cl)cccc1Cl` [Compound 8] yielded an IC50 of 1 to 10 µM.
With `O=C(N[C@H]1CCNC1)c1nn(C(=O)c2c(Cl)cccc2Cl)cc1NC(=O)c1c(Cl)cccc1Cl` [Compound 9] the IC50 was 1 to 10 µM.
With `NCCCNC(=O)c1nn(C(=O)c2c(Cl)cccc2Cl)cc1NC(=O)c1c(Cl)cccc1Cl` [Compound 10] the IC50 was 1 to 10 µM.
`CN(C(=O)c1nn(C(=O)c2c(Cl)cccc2Cl)cc1NC(=O)c1c(Cl)cccc1Cl)C1CCNCC1` [Compound 11] showed an IC50 of 1 to 10 µM.
`CC1CNCCC1NC(=O)c1nn(C(=O)c2c(Cl)cccc2Cl)cc1NC(=O)c1c(Cl)cccc1Cl` (stereo not shown) [Compound 12] gave an IC50 of 1 to 10 µM.
In the case of `O=C(NC1C2CNCC21)c1nn(C(=O)c2c(Cl)cccc2Cl)cc1NC(=O)c1c(Cl)cccc1Cl` (stereo not shown) [Compound 13], the IC50 is reported as 1 to 10 µM.
`CN(C(=O)c1nn(C(=O)c2c(Cl)cccc2Cl)cc1NC(=O)c1c(Cl)cccc1Cl)C1CNC1` [Compound 15] showed an IC50 of 10 to 50 µM.
In the case of `O=C(NC1CNC1)c1nn(C(=O)c2c(Cl)cccc2Cl)cc1NC(=O)c1c(Cl)cccc1Cl` [Compound 17], the IC50 is reported as 10 to 50 µM.
In the case of `COc1ccccc1NC(=O)n1cc(NC(=O)c2c(Cl)cccc2Cl)c(C(=O)NC2CCNCC2)n1` [Compound 18, 4-(2,6-dichlorobenzamido)-N1-(2-methoxyphenyl)-N3-(piperidin-4-yl)-1H-pyrazole-1,3-dicarboxamide], the IC50 is reported as 10 to 50 µM.
`COc1ccccc1NC(=O)n1cc(NC(=O)c2c(Cl)cccc2Cl)c(C(=O)NC2CCNCC2)n1` [Compound 19] showed an IC50 of 10 to 50 µM.
Work on `O=C(NCCN1CCCC1)c1nn(C(=O)c2c(Cl)cccc2Cl)cc1NC(=O)c1c(Cl)cccc1Cl` [Compound 20] yielded an IC50 of 10 to 50 µM.
Compound `COC(=O)c1ccccc1NC(=O)n1cc(NC(=O)c2c(Cl)cccc2Cl)c(C(=O)NCCCN2CCCC2)n1` [Compound 21] has an IC50 of 50 to 300 µM.
`O=C(NC1CCNCC1)c1nn(S(=O)(=O)c2cccc(Cl)c2)cc1NC(=O)c1c(Cl)cccc1Cl` [Compound 24] showed an IC50 of 50 to 300 µM.
`O=C(NC1CCNCC1)c1nn(S(=O)(=O)c2ccccc2Cl)cc1NC(=O)c1c(Cl)cccc1Cl` [Compound 25] was tested, and the IC50 was 50 to 300 µM.
`O=C(NC1CCNCC1)c1nn(S(=O)(=O)c2cc(C(F)(F)F)ccc2Cl)cc1NC(=O)c1c(Cl)cccc1Cl` [Compound 26] was tested, and the IC50 was 50 to 300 µM.
For `O=C(NC1CCNCC1)c1nn(S(=O)(=O)c2cc(Cl)cc(C(F)(F)F)c2)cc1NC(=O)c1c(Cl)cccc1Cl` [Compound 27], the IC50 was 50 to 300 µM.
In the case of `C[N+]1(C)CCC(NC(=O)c2nn(C(=O)c3c(Cl)cccc3Cl)cc2NC(=O)c2c(Cl)cccc2Cl)CC1` [Compound 29], the IC50 is reported as 10 to 50 µM.
`O=C(NC1CCNCC1)c1nn(S(=O)(=O)c2ccc(OCCCN3C(=O)c4ccccc4C3=O)cc2)cc1NC(=O)c1c(Cl)cccc1Cl` [Compound 30, 4-(2,6-dichlorobenzamido)-1-(4-(3-(1,3-dioxoisoindolin-2-yl)propoxy)phenylsulfonyl)-N-(piperidin-4-yl)-1H-pyrazole-3-carboxamide] was tested, and the IC50 was 1 to 10 µM.
Compound `O=C(NC1CCNCC1)c1nn(S(=O)(=O)CCc2ccc(Cl)cc2)cc1NC(=O)c1c(Cl)cccc1Cl` [Compound 31] has an IC50 of 1 to 10 µM.
`C#CCCCCOC(=O)COc1ccc(S(=O)(=O)n2cc(NC(=O)c3c(Cl)cccc3Cl)c(C(=O)NC3CCNCC3)n2)cc1` [Compound 32, Hex-5-ynyl 2-(4-(4-(2,6-dichlorobenzamido)-3-(piperidin-4-ylcarbamoyl)-1H-pyrazol-1-ylsulfonyl)phenoxy)acetate] gave an IC50 of 10 to 50 µM.
`COC(=O)COc1ccc(S(=O)(=O)n2cc(NC(=O)c3c(Cl)cccc3Cl)c(C(=O)NC3CCNCC3)n2)cc1` [Compound 33, Methyl 2-(4-(4-(2,6-dichlorobenzamido)-3-(piperidin-4-ylcarbamoyl)-1H-pyrazol-1-ylsulfonyl)phenoxy)acetate] was tested, and the IC50 was 50 to 300 µM.
Compound `NCCCOc1ccc(S(=O)(=O)n2cc(NC(=O)c3c(Cl)cccc3Cl)c(C(=O)NC3CCNCC3)n2)cc1` [Compound 34, 1-(4-(3-aminopropoxy)phenylsulfonyl)-4-(2,6-dichlorobenzamido)-N-(piperidin-4-yl)-1H-pyrazole-3-carboxamide] has an IC50 of 50 to 300 µM.
`O=C(NC1CCNCC1)c1nn(C(=O)Nc2ccc(Cl)cc2)cc1NC(=O)c1c(Cl)cccc1Cl` [Compound 35] was tested, and the IC50 was 50 to 300 µM.
`O=C(NC1CCNCC1)c1nn(C(=O)Nc2cccc(Cl)c2)cc1NC(=O)c1c(Cl)cccc1Cl` [Compound 36] gave an IC50 of 50 to 300 µM.
`CN1CCC(NC(=O)c2nn(C(=O)c3c(Cl)cccc3Cl)cc2NC(=O)c2c(Cl)cccc2Cl)CC1` [Compound 37] was tested, and the IC50 was 1 to 10 µM.

Same assay, conditions: Table 2, method of Example 2; read-out: BRISC IC50 μM Range
For `C#CCCCCOc1ccc(S(=O)(=O)n2cc(NC(=O)c3c(Cl)cccc3Cl)c(C(=O)NC3CCNCC3)n2)cc1` [Compound 41, 4-(2,6-Dichlorobenzamido)-1-(4-(hex-5-ynyloxy)phenylsulfonyl)-N-(piperidin-4-yl)-1H-pyrazole-3-carboxamide], the IC50 was 1 to 10 µM.
In the case of `CCOc1cc(C(C)(C)C)ccc1C1=N[C@@](C)(c2ccc(Cl)cc2)[C@@](C)(c2ccc(Cl)cc2)N1C(=O)N1CCN(CC(=O)NCCOCCOCCn2cc(CCCCOc3ccc(S(=O)(=O)n4cc(NC(=O)c5c(Cl)cccc5Cl)c(C(=O)NC5CCNCC5)n4)cc3)nn2)CC1` [Compound 42, 1-(4-(4-(1-(2-(2-(2-(2-(4-((4S,5R)-2-(4-Tert-butyl-2-ethoxyphenyl)-4,5-bis(4-chlorophenyl)-4,5-dimethyl-4,5-dihydro-1H-imidazole-1-carbonyl)piperazin-1-yl)acetamido)ethoxy)ethoxy)ethyl)-1H-1,2,3-triazol-4-yl)butoxy)phenylsulfonyl)-4-(2,6-dichlorobenzamido)-N-(piperidin-4-yl)-1H-pyrazole-3-carboxamide], the IC50 is reported as 0.1 to 1 µM.
`Cc1ncsc1-c1ccc(CNC(=O)[C@@H]2C[C@H](O)CN2C(=O)[C@@H](NC(=O)COCCOCCOCCn2cc(CCCCOc3ccc(S(=O)(=O)n4cc(NC(=O)c5c(Cl)cccc5Cl)c(C(=O)NC5CCNCC5)n4)cc3)nn2)C(C)(C)C)cc1` [Compound 43, 4-(2,6-dichlorobenzamido)-1-(4-(4-(1-((S)-13-((2S,4S)-4-hydroxy-2-(4-(4-methylthiazol-5-yl)benzylcarbamoyl)pyrrolidine-1-carbonyl)-14,14-dimethyl-11-oxo-3,6,9-trioxa-12-azapentadecyl)-1H-1,2,3-triazol-4-yl)butoxy)phenylsulfonyl)-N-(piperidin-4-yl)-1H-pyrazole-3-carboxamide] gave an IC50 of 0.1 to 1 µM.
For `COC(=O)c1cnc2c(SCc3ccccn3)cccc2c1` [Compound 54], the IC50 was 10 to 50 µM.
`C[C@@H]1CNCCN1C(=O)c1nn(C(=O)c2c(Cl)cccc2Cl)cc1NC(=O)c1c(Cl)cccc1Cl` [Compound 55] gave an IC50 of 1 to 10 µM.

What follows are compounds tested on human cells (assay: Cellular toxicity in human cells). Details: 5 μM.
Format: cell-based
With `CS(=O)(=O)n1cc(NC(=O)c2c(Cl)cccc2Cl)c(C(=O)NC2CCNCC2)n1` [Compound 2, 4-(2,6-dichlorobenzamido)-1-(methylsulfonyl)-N-(piperidin-4-yl)-1H-pyrazole-3-carboxamide] the cellular toxicity was “no detectable cellular toxicity”.
